The first assay has as its target T1, STAT6 protein (Homo sapiens, UniProt P42226).
T1 sequence (P42226 1-847): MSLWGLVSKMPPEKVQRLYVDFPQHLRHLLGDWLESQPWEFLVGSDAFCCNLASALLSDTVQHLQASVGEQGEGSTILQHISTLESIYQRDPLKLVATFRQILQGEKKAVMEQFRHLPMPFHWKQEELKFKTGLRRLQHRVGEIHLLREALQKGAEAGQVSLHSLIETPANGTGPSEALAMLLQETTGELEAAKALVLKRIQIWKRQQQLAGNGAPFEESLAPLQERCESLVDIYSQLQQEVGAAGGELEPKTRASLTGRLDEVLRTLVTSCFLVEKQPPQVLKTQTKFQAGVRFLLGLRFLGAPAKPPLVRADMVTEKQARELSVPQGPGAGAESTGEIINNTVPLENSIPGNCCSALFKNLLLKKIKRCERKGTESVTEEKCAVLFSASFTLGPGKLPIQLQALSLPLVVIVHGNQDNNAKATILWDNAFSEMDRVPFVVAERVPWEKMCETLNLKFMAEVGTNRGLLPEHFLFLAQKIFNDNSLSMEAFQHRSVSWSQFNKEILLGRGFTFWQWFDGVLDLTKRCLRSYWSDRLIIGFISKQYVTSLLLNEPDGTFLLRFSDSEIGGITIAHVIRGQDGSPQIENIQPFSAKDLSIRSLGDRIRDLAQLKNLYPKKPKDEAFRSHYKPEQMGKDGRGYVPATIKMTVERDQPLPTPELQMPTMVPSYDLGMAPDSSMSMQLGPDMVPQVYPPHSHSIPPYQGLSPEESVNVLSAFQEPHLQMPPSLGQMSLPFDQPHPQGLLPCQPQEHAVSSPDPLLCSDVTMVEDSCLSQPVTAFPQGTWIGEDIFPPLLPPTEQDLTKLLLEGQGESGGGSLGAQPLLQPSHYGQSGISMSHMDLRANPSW
Put plainly: Fluorescence polarization (FP) binding assay, STAT6.
Conditions: not given
In short, it runs like this: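 Each well holds 200 nM STAT5 and/or STAT6 with 5 nM fluorescent tracer in PBS pH 7.4 (0.01% BGG, 0.01% Tween-20, 2 mM DTT). Binding reaches equilibrium over 1 h at room temperature after brief shaking, and polarization data are fitted nonlinearly.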
(Fluorescence polarisation rises when a labelled molecule tumbles more slowly, as on binding a larger partner.)
With `CCOP(=O)(O)C(F)(F)c1ccc2sc(C(=O)N[C@H]3CN(C(C)=O)CC[C@H]4CC[C@@H](C(=O)N5CCC6(CCCCCC6)C5)N4C3=O)cc2c1` [Compound 384, ethyl hydrogen ((2-(((5S,85,10aR)-3-acetyl-6-oxo-8-(2-azaspiro[4.6]undecane-2-carbonyl)decahydropyrrolo[1,2-a][1,5]diazocin-5-yl)carbamoyl)benzo[b]thiophen-5-yl)difluoromethyl)phosphonate], the Ki is more than 10 µM.

As for `CCOP(=O)(O)C(F)(F)c1ccc2sc(C(=O)N[C@H]3CN(C(C)=O)CC[C@H]4CC[C@@H](C(=O)N5CCCC56CCCC6)N4C3=O)cc2c1` [Compound 386, ethyl hydrogen ((2-(((5S,8S,10aR)-3-acetyl-6-oxo-8-(1-azaspiro[4.4]nonane-1-carbonyl)decahydropyrrolo[1,2-a][1,5]diazocin-5-yl)carbamoyl)benzo[b]thiophen-5-yl)difluoromethyl)phosphonate], the Ki is more than 10 µM.

Still in this assay, the particulars now being: FP competition, 5 nM fluorescein-labeled tracer, 200 nM protein, PBS pH7.4; read-out: Binding STAT6.
As for `CC(=O)N1CC[C@H]2CC[C@@H](C(=O)N3CCC4(CCCCCC4)C3)N2C(=O)[C@@H](NC(=O)c2cc3cc(C(F)(F)P(=O)(O)O)ccc3s2)C1` [Compound 385, ((2-(((5S,8S,10aR)-3-acetyl-6-oxo-8-(2-azaspiro[4.6]undecane-2-carbonyl)decahydropyrrolo[1,2-a][1,5]diazocin-5-yl)carbamoyl)benzo[b]thiophen-5-yl)difluoromethyl)phosphonic acid], the Ki was more than 10 µM.

As for `CC(=O)N1CC[C@H]2CC[C@@H](C(=O)N3CCCC34CCCC4)N2C(=O)[C@@H](NC(=O)c2cc3cc(C(F)(F)P(=O)(O)O)ccc3s2)C1` [Compound 387, ((2-(((5S,8S,10aR)-3-acetyl-6-oxo-8-(1-azaspiro[4.4]nonane-1-carbonyl)decahydropyrrolo[1,2-a][1,5]diazocin-5-yl)carbamoyl)benzo[b]thiophen-5-yl)difluoromethyl)phosphonic acid], the Ki is more than 10 µM.

Regarding `CCN(C(=O)[C@@H]1CC[C@@H]2CCN(C(C)=O)C[C@H](NC(=O)c3cc4cc(C(F)(F)P(=O)(O)O)ccc4s3)C(=O)N21)c1ccc(Cl)cc1` [Compound 388, ((2-(((5S,8S,10aR)-3-acetyl-8-((4-chlorophenyl)(ethyl)carbamoyl)-6-oxodecahydropyrrolo[1,2-a][1,5]diazocin-5-yl)carbamoyl)benzo[b]thiophen-5-yl)difluoromethyl)phosphonic acid], the Ki is more than 10 µM.

Consider `CC(=O)N1CC[C@H]2CC[C@@H](C(=O)N(c3ccc(Cl)cc3)C(C)C)N2C(=O)[C@@H](NC(=O)c2cc3cc(C(F)(F)P(=O)(O)O)ccc3s2)C1` [Compound 389, ((2-(((5S,8S,10aR)-3-acetyl-8-((4-chlorophenyl)(isopropyl)carbamoyl)-6-oxodecahydropyrrolo[1,2-a][1,5]diazocin-5-yl)carbamoyl)benzo[b]thiophen-5-yl)difluoromethyl)phosphonic acid], for which the Ki was 1 to 10 µM.

In the case of `CC(=O)N1CC[C@H]2CC[C@@H](C(=O)N3CCC(C)(C(C)C)C3)N2C(=O)[C@@H](NC(=O)c2cc3cc(C(F)(F)P(=O)(O)O)ccc3s2)C1` (stereo partly drawn) [Compound 390, ((2-(((5S,8S,10aR)-3-acetyl-8-(3-isopropyl-3-methylpyrrolidine-1-carbonyl)-6-oxodecahydropyrrolo[1,2-a][1,5]diazocin-5-yl)carbamoyl)benzo[b]thiophen-5-yl)difluoromethyl)phosphonic acid], the Ki is more than 10 µM.

On to `CC(=O)N1CC[C@H]2CC[C@@H](C(=O)N3CCCCC4(CCCC4)C3)N2C(=O)[C@@H](NC(=O)c2cc3cc(C(F)(F)P(=O)(O)O)ccc3s2)C1` [Compound 391, ((2-(((5S,85,10aR)-3-acetyl-6-oxo-8-(7-azaspiro[4.6]undecane-7-carbonyl)decahydropyrrolo[1,2-a][1,5]diazocin-5-yl)carbamoyl)benzo[b]thiophen-5-yl)difluoromethyl)phosphonic acid], for which the Ki was more than 10 µM.

Turning to `CC(=O)N1CC[C@H]2CC[C@@H](C(=O)N3CCC(C(N)=O)(C(F)(F)F)C3)N2C(=O)[C@@H](NC(=O)c2cc3cc(C(F)(F)P(=O)(O)O)ccc3s2)C1` (stereo partly drawn) [Compound 392, ((2-(((5S,8S,10aR)-3-acetyl-8-(3-carbamoyl-3-(trifluoromethyl)pyrrolidine-1-carbonyl)-6-oxodecahydropyrrolo[1,2-a][1,5]diazocin-5-yl)carbamoyl)benzo[b]thiophen-5-yl)difluoromethyl)phosphonic acid], the Ki is more than 10 µM.

In the case of `CC(=O)N1CC[C@H]2CC[C@@H](C(=O)N3CCC(C)(c4ccccc4)C3)N2C(=O)[C@@H](NC(=O)c2cc3cc(C(F)(F)P(=O)(O)O)ccc3s2)C1` (stereo partly drawn) [Compound 393, ((2-(((5S,8S,10aR)-3-acetyl-8-(3-methyl-3-phenylpyrrolidine-1-carbonyl)-6-oxodecahydropyrrolo[1,2-a][1,5]diazocin-5-yl)carbamoyl)benzo[b]thiophen-5-yl)difluoromethyl)phosphonic acid], the Ki was more than 10 µM.

`CC(=O)N1CC[C@H]2CC[C@@H](C(=O)N(C)c3ccc(Br)cc3)N2C(=O)[C@@H](NC(=O)c2cc3cc(C(F)(F)P(=O)(O)O)ccc3s2)C1` [Compound 394, ((2-(((5S,8S,10aR)-3-acetyl-8-((4-bromophenyl)(methyl)carbamoyl)-6-oxodecahydropyrrolo[1,2-a][1,5]diazocin-5-yl)carbamoyl)benzo[b]thiophen-5-yl)difluoromethyl)phosphonic acid]: the Ki is more than 10 µM.

Turning to `CC(=O)N1CC[C@H]2CC[C@@H](C(=O)N3CCC(C)(C4CC4)C3)N2C(=O)[C@@H](NC(=O)c2cc3cc(C(F)(F)P(=O)(O)O)ccc3s2)C1` (stereo partly drawn) [Compound 395, ((2-(((5S,8S,10aR)-3-acetyl-8-(3-cyclopropyl-3-methylpyrrolidine-1-carbonyl)-6-oxodecahydropyrrolo[1,2-a][1,5]diazocin-5-yl)carbamoyl)benzo[b]thiophen-5-yl)difluoromethyl)phosphonic acid], the Ki is more than 10 µM.

The next assay concerns the target T2, STAT5A (Homo sapiens, UniProt P42229).
T2 sequence (P42229 1-794): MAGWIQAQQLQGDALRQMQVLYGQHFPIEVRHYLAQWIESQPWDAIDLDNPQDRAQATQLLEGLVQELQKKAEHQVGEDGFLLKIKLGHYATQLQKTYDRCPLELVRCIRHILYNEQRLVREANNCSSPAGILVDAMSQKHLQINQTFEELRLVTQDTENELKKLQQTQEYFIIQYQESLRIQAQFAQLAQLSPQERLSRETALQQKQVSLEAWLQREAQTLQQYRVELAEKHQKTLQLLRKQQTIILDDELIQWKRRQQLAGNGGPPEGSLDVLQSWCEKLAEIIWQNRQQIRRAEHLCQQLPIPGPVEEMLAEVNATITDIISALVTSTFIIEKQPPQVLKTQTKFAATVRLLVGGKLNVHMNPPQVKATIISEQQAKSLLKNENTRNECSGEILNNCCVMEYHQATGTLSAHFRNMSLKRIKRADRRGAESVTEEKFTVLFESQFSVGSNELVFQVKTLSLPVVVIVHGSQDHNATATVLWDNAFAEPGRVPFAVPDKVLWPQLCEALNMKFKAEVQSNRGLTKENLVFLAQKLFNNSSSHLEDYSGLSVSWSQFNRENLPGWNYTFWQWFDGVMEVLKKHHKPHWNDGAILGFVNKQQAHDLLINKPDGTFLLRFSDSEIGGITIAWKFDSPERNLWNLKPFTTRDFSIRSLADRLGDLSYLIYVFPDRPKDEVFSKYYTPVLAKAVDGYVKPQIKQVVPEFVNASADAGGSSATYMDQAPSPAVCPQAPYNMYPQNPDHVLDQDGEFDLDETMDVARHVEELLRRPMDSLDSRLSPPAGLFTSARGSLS
Put plainly: Fluorescence polarization (FP) binding assay, STAT5A. Particulars: FP competition, 5 nM fluorescein-labeled tracer, 200 nM protein, PBS pH7.4. The protocol: Evaluation of the activity of the inhibitors may be accomplished by fluorescence polarization (FP) experiments. A representative general protocol is the following:
Fluorescence polarization (FP) experiments are performed in black round-bottom plates using the CLARIOstar microplate reader. To each well, fluorescein-labeled tracer and STAT5 or STAT6 protein are added in assay buffer. […] The inhibition constants are determined as the concentration of the STAT5 or STAT6 at which 50% of the ligand is bound.
Fluorescence polarization (FP) experiments were performed in 96-well, black round-bottom plates (Microfluor 2, Fisher Scientific) using the CLARIOstar microplate reader (BMG Labtech). To each well, 5 nM of fluoresceinlabeled tracer and 200 nM of STAT5 and/or STAT6 protein were added to a final volume of 100 μl in the assay buffer (PBS pH7.4+0.01% BGG+0.01% Tween-20, 2 mM DTT). The plate was mixed on a shaker for 15 m and incubated at room temperature for 1 h to reach equilibrium. […] All experimental data were analyzed using Prism 8.0 software (GraphPad Software), and the inhibition constants were determined by nonlinear curve fitting as the concentration of the STAT5 and/or STAT6 at which 50% of the ligand is bound.
As to `CC(C)(C)[C@H](NC(=O)c1cc2cc(C(F)(F)P(=O)(O)O)ccc2s1)C(=O)N1CCC[C@H]1C(=O)Nc1nccs1` [Compound 247, ((2-(((S)-3,3-dimethyl-1-oxo-1-((S)-2-(thiazol-2-ylcarbamoyl)pyrrolidin-1-yl)butan-2-yl)carbamoyl)benzo[b]thiophen-5-yl)difluoromethyl)phosphonic acid], the Ki was 1 to 10 µM.

The record behind these values is patent US20230295200A1 (REGENTS OF THE UNIVERSITY OF MICHIGAN, priority 2022, published 2023).
